Values joined by “and” are separate entries in the source; they are usually repeats but may differ in a detail not shown here. Equal values may be shown once.
How the values were obtained:
[1] = Light exposure of dried metaflumizone formulation with UV absorber (Atlas Suntest, seven days), residual content by UPLC; format: physicochemical; conditions: 100 g/l metaflumizone, 40 g/l UV absorber, exposed to light seven days, unexposed blank = 100%
Experimental: A formulation comprising 100 g/l of metaflumizone and 40 g/l of UV absorber was prepared by two different methods: a) Wet grinding with subsequent addition of UV absorber as in Example 9. b) Wet grinding with UV absorber as in Example 8. About 20 mg of the mixture prepared in this way were applied to a microscope slide, allowed to dry on for 30 minutes and exposed to light continuously for seven days (Atlas Suntest CRT plus, “Outdoor” setting, exposure to light corresponds to the same spectrum and intensity as normal sunlight at midday in summer). After the exposure time, the samples were dissolved in dimethylsulfoxide. […] For comparison, a sample without UV absorber was also allowed to run (reference) in each exposure series. Evaluation: 2 samples were dissolved again as blank samples immediately after the drying on, without exposure to light, and the content of metaflumizone was determined. The resulting mean was set at 100% and the remaining samples were standardized against this.

[2] = Determination of the surface tension of the UV absorbers; format: physicochemical; conditions: 25° C.; UV absorber concentrations from about 1 mg/l to 5,000 mg/l; water to air
Experimental: The surface tension (ST) of the UV absorbers was determined at 25° C. at concentrations of the UV absorber of from about 1 mg/l to 5,000 mg/l. The ST of water to air is, for comparison, 72.4 mN/m, the ST of commercial surfactants is about 30-35 mN/m.

[3] = formulation by method a) (wet grinding, subsequent addition of UV absorber)

Compound	Residual content of metaflumizone (%) [1, 3]	ST [mN/m] (surface tension) [2]	Residual content of metaflumizone (%) ([1]; formulation by method b) (wet grinding with UV absorber))
2-cyano-3,3-diphenyl-acrylic acid [Pluriol A500E] ester [Example 2B]	76.7%	–	–
2,4,6-trianilino-p-(carboxy-[Pluriol A500E]-yl)-1,3,5-triazine [Example 4B]	77.5%	–	–
2-cyano-3,3-diphenylacrylic acid [EO-tridecanol]ester [Example 2D]	–	33.9	–
COCCOCCOCCOCCOCCOCCOCCOC(=O)C(C#N)=C(c1ccccc1)c1ccccc1 [Example 2A, 2-cyano-3,3-diphenyl-acrylic acid [Pluriol A350E] ester]	87.1%	43.1	–
COCCOCCOCCOCCOCCOCCOCCOC(=O)COc1ccc(C(=O)c2ccccc2)c(O)c1 [Example 3B, (4-benzoyl-3-hydroxy-phenoxy)-acetic acid [Pluriol A350E] ester]	85.9% and 83.2%	45.7	82.8

Other lines, results leading:

Residual content of metaflumizone (%) [1, 3]	ST [mN/m] (surface tension) [2]	Residual content of metaflumizone (%) ([1]; formulation by method b) (wet grinding with UV absorber))	Compound
53.3%	–	–	p-Aminobenzoic acid ethoxylate [Uvinul P25, reference compound]
66.5%	–	–	COCCOCCOCCOCCOC(=O)C=Cc1ccccc1 [Example 6B, cinnamic acid 3,6,9,12-tetraoxatridecyl ester]
74.7%	–	–	3,6,9,12-tetraoxatridecylcinnamic acid amide [Example 6A]
